Results as given in paper PMC5962642, “Dynamic imaging of adaptive stress response pathway activation for prediction of drug induced liver injury” (Archives of Toxicology, 2018).

Assays:
[1] = C-max obtained from FDA or literature; ref per compound (FDA, Dailymed, Xu, O’Brien, Khetani, Regenthal, Gustafsson, Dawson, Ogutu, Patel, Schmidt, Ravic, Keisu, Hu, Wagner); cited from earlier work
[2] = ref Chen et al. [2016], cited from earlier work; for Hepa. (hepatotoxicity class): FDA labeling in eight classes of hepatotoxicity; for DILI con. (DILI-concern labeling): FDA DILI labeling
[3] = two classes made from the FDA DILI-concern labeling
[4] = ref livertox.nih.gov database; cited from earlier work
[5] = system: Srxn1-GFP (oxidative stress); assay: HepG2 Srxn1-GFP BAC reporter, live cell confocal imaging (oxidative stress); format: cell-based, Human; details: for Srxn1-GFP reporter response: HepG2 BAC-GFP, 24 h live imaging, 1-100 C-max
Protocol: Human hepatoma HepG2 cells were acquired from ATCC (clone HB8065). HepG2 Srxn1, DDIT3 (CHOP), CDKN1A (p21) and ICAM1 BAC GFP reporter cell lines were previously established and characterized (Wink et al. [2017]). HepG2 BAC GFP reporters were maintained and exposed to drugs in DMEM high glucose supplemented with 10% (v/v) FBS, 25 U/mL penicillin and 25 µg/mL streptomycin. The cell lines were used between passage 5 and 25. For live cell imaging, the cells were seeded in Greiner black µ-clear 384 wells plates, at 8000 cells per well.
Accumulation of GFP levels, propodium iodide (PI) and Hoechst staining was monitored using a Nikon TiE2000 confocal laser microscope (lasers 540, 488 and 408 nm), equipped with an automated stage and perfect focus system at 37 °C with humidified atmosphere and 5% CO2/air mixture. All imaging was similar as previously described^5. Each 384-well plate contained one reporter cell line, which was exposed to all the compounds used in the screen at one certain concentration (1, 5, 10, 50 or 100 Cmax); for each concentration at least two replicates were imaged per reporter cell line. For the ICAM1-GFP reporter experiments, cells were first exposed for 8 h to compound only; next, TNFα was added to all wells, up to a final concentration of 10 ng/mL. Directly after TNFα treatment the live cell imaging was started.
Quantitative image analysis was performed with CellProfiler version 2.1.1 (Kamentsky et al. [2011]) with an in house developed CellProfiler module implementing the watershed masked algorithm for segmentation (Yan and Verbeek [2012]; Wink et al. [2017]). Image analysis results were stored as HDF5 files. Data analysis, quality control and graphics were performed using the in house developed R package h5CellProfiler (manuscript in preparation). For each reporter hourly intensity levels of the GFP signal, the nuclear Hoechst33342 intensity levels and at 24 h the PI staining were measured at the single cell level. In addition, cell numbers, nuclei size and cell motility were measured.
GFP intensity cell population means were calculated. In addition, for each plate the cell population mean GFP intensity of the DMSO treated cells was calculated to determine background control values. Per plate, the single cells that had values above the 2X mean, 3X mean were counted resulting in GFP positive fraction measures. For ICAM1, the background control values consisted of DMSO conditions treated with TNFα, and the single cells with values above, as well as below background values were counted. Due to the non-symmetric distribution of ICAM1 cell population GFP intensities, the interquartile range (IQR) was used to count the number of cells 1.5, 2 and 3 times above and below the TNFα IQR control values (Supplemental Fig. 1).
The maximum values over time of the scaled intensity levels and positive GFP fractions were selected for the concentration response curves. These values were fit to a four parameter log-logistic model using the drc package (Ritz et al. [2015]). BMC values were calculated as the concentration at which + 0.25 (and − 0.25 for ICAM1) absolute increase from the initial response values occurred (Fig. 5a).

| Compound | Cmax [1] [µM] | Hepa. (hepatotoxicity class) [2] | Severity class [3] | DILI con. (DILI-concern labeling) [2] | Metab (metabolic potential) [4] | Srxn1-GFP response at the intensity feature level (cell population) ([5]; GFP intensity over the single cell population) | earliest concentration with Srxn1 response, %GFP positive marker ([5]; multiples of C-max) [C-max] | Srxn1-GFP reporter response [5] |
| --- | --- | --- | --- | --- | --- | --- | --- | --- |
| CCC1(c2ccccc2)C(=O)NC(=O)NC1=O [Phenobarbital] | 146 | 3 | Non-sev. | – | – | – | – | – |
| COc1cc(NC(C)CCCN)c2ncccc2c1 (stereo not drawn) [Primaquine] | – | 1 | Non-sev. | No-DC | – | – | – | – |
| CCN(CC)C(=O)/C(C#N)=C/c1cc(O)c(O)c([N+](=O)[O-])c1 [Entacapone] | 3.93 | 1 | Non-sev. | Less-DC | YES | – | – | – |
| CC(=O)N1CCN(c2ccc(OCC3COC(Cn4ccnc4)(c4ccc(Cl)cc4Cl)O3)cc2)CC1 (stereo not drawn) [Ketoconazole] | 6.59 | 8 | – | Most-DC | – | no Srxn1-response | 50 | – |
| NC(N)=Nc1nc(CSCCC(N)=NS(N)(=O)=O)cs1 [Famotidine] | 0.308 | 3 | – | Less-DC | YES | – | – | – |
| C[N+](C)(C)CC(=O)O [Betaine] | 940 | 1 | Non-sev. | No-DC | – | – | – | – |
| COc1cc(C(=O)NS(=O)(=O)c2ccccc2C)ccc1Cc1cn(C)c2ccc(NC(=O)OC3CCCC3)cc12 [Zafirlukast] | 1.21 | 8 | – | Most-DC | YES | – | – | – |
| CCOC(=O)[C@H](CCc1ccccc1)N[C@@H](C)C(=O)N1CCC[C@H]1C(=O)O [Enalapril] | 0.4 | 7 | – | Less-DC | YES | – | – | – |
| O=C1NC(=O)C(c2ccccc2)(c2ccccc2)N1 [Phenytoin] | 21.7 | 8 | – | Most-DC | YES | – | – | – |
| CCc1ccc(CCOc2ccc(CC3SC(=O)NC3=O)cc2)nc1 (stereo not drawn) [Pioghtazone] | 2.95 | 3 | Non-sev. | Less-DC | – | – | – | – |
| CSc1ccc2c(c1)N(CCC1CCCCN1C)c1ccccc1S2 (stereo not drawn) [Thiondazine] | 0.55 | – | Non-sev. | – | YES | – | – | – |
| NC[C@H]1O[C@H](O[C@H]2[C@H](O)[C@@H](O[C@H]3O[C@H](CO)[C@@H](O)[C@H](N)[C@H]3O)[C@H](N)C[C@@H]2N)[C@H](O)[C@@H](O)[C@@H]1O [Kanamycin] | 60.1 | – | Non-sev. | – | – | – | – | – |
| CO[C@H]1/C=C/O[C@@]2(C)Oc3c(C)c(O)c4c(O)c(c(/C=N/N5CCN(C)CC5)c(O)c4c3C2=O)NC(=O)/C(C)=C\C=C\[C@H](C)[C@H](O)[C@@H](C)[C@@H](O)[C@@H](C)[C@H](OC(C)=O)[C@@H]1C [Rifampicin] | 15 | – | – | Most-DC | YES | – | – | – |
| CCOC(=O)C(C)(C)Oc1ccc(Cl)cc1 [Clofibrate] | 470 | 3 | – | Less-DC | YES | – | – | – |
| NC(=O)c1ncn([C@@H]2O[C@H](CO)[C@@H](O)[C@H]2O)n1 [Ribavirin] | 2.61 | – | – | Amb.-DC | YES | – | – | – |
| O=c1n(CCCN2CCN(c3cccc(Cl)c3)CC2)nc2ccccn12 [Trazodone] | 5.06 | 5 | – | Less-DC | YES | – | – | – |
| CC(C)NNC(=O)c1ccncc1 [Iboniazid] | 76.6 | 8 | Sev. | Most-DC | YES | – | – | – |
| C[C@H]1O[C@H](O[C@H]2[C@H](O)[C@@H](O)[C@@H](O[C@H]3[C@H](O)[C@@H](O)C(O)O[C@@H]3CO)O[C@@H]2CO)[C@H](O)[C@@H](O)[C@@H]1N[C@H]1C=C(CO)[C@@H](O)[C@H](O)[C@H]1O (stereo partly drawn) [Acarbose] | 0.15 | – | Sev. | – | – | – | – | – |

| Compound | Cmax [1] [µM] | Hepa. (hepatotoxicity class) [2] | Severity class [3] | DILI con. (DILI-concern labeling) [2] | Metab (metabolic potential) [4] | Srxn1-GFP response at the intensity feature level (cell population) ([5]; GFP intensity over the single cell population) | earliest concentration with Srxn1 response, %GFP positive marker ([5]; multiples of C-max) [C-max] | Srxn1-GFP reporter response [5] |
| --- | --- | --- | --- | --- | --- | --- | --- | --- |
| CCOC(=O)/C=C\C(=O)OCC [Diethylmaleate] | – | – | – | – | – | – | – | strong inducers |
| Cc1c(C)c2c(c(C)c1O)CCC(C)(COc1ccc(CC3SC(=O)NC3=O)cc1)O2 (stereo not drawn) [Troghtazone] | – | 8 | Sev. | Most-DC | YES | – | – | – |
| CN1C(=O)CCS(=O)(=O)C1c1ccc(Cl)cc1 (stereo not drawn) [Chlormezanone] | 10.6 | 8 | Sev. | Most-DC | – | – | – | – |
| CC(=O)Nc1ccc(O)cc1 [Acetaminophen] | – | – | – | – | YES | – | – | activation |
| OC(CCN1CCCC1)(c1ccccc1)C1CCCCC1 (stereo not drawn) [Procychdine] | – | – | Non-sev. | – | – | – | – | – |
| O=C(CCCN1CCC(O)(c2ccc(Cl)cc2)CC1)c1ccc(F)cc1 [Haloperidol] | 0.005 | 5 | – | – | YES | – | – | – |
| CC[N+](C)(C)c1cccc(O)c1 [Edrophonium] | 60.2 | 1 | Non-sev. | – | – | – | – | – |
| Br.COc1ccc2c(c1)[C@]13CCCC[C@@H]1[C@H](C2)N(C)CC3 [Dextromethorphan hbr] | 0.022 | – | Non-sev. | No-DC | – | – | – | – |
| Nc1ncnc2c1ncn2CCOCP(=O)(O)O [Adefovir] | 0.085 | 2 | Non-sev. | Less-DC | – | – | – | – |
| CN/C(=N/CCSCc1nc[nH]c1C)NC#N [Cimetidine] | 11.9 | 2 | – | Less-DC | YES | – | – | – |
| Oc1ncnc2[nH]ncc12 [Allopunnol] | 13.8 | 8 | Sev. | Most-DC | – | – | – | – |
| CNC(=C[N+](=O)[O-])NCCSCc1csc(CN(C)C)n1 [Nizatidine] | 4 | 5 | – | Less-DC | YES | – | – | – |
| Cc1cccc(C)c1OCC(C)N (stereo not drawn) [Mexiletine] | 3.83 | 3 | – | – | YES | – | – | – |
| C[N+](C)(C)CCOC(=O)CCC(=O)OCC[N+](C)(C)C [Succinylcholine] | 138 | 1 | Non-sev. | No-DC | – | – | – | – |
| CN(C)C/C=C(/c1ccc(Br)cc1)c1cccnc1 [Zimehdine] | – | 8 | Sev. | Most-DC | – | – | – | – |
| Cc1ccc(C(=O)c2cc(O)c(O)c([N+](=O)[O-])c2)cc1 [Tolcapone] | 22 | 8 | Sev. | Most-DC | YES | – | – | – |
| CC(C(=O)O)c1ccc(-c2ccccc2)c(F)c1 (stereo not drawn) [Flurbiprofen] | 57.3 | 3 | – | Amb.-DC | YES | – | – | – |
| COc1ccc2[nH]c([S+]([O-])Cc3ncc(C)c(OC)c3C)nc2c1 (stereo not drawn) [Omeprazole] | 4.7 | 4 | – | Less-DC | YES | – | – | – |
